Like-named read-outs stand apart in the source and are kept apart here. Starred links: 1 amine or outer side, 2 acyl side, 3 side chain; linkers in the order of their positions; H or OH if unused. Non-standard residues stand in square brackets, D forms with d. Residues, ends and D or L forms follow the SMILES beside them. Groups on a side chain read outwards from the residue. *: point of attachment. C20 diacid = O=C(O)CCCCCCCCCCCCCCCCCCC(=O)*; C18 diacid = O=C(O)CCCCCCCCCCCCCCCCC(=O)*; γGlu = O=C(O)[C@H](CCC(=O)[*:2])N[*:1]; αMeF = C[C@](N)(Cc1ccccc1)C(=O)O; AEEA = NCCOCCOCC(=O)O; Aib = CC(C)(N)C(=O)O
Assays:
[1] = Proteolytic resistance to FasSSGF containing porcine pancreatic pepsin; assay type: in vitro ADME; conditions: pig, simulated gastric fluid
Protocol: Stimulated Gastric Fluid (FasSSGF) Containing Porcine Pancreatic Pepsin Lyophilized porcine pancreatic pepsin (Sigma: P7012) was reconstituted to 0.5 mg/mL (˜2500 units/mL) in freshly prepared FasSSGF (Biorelevant media) to give the enzyme stock solution. Peptide stock solution was prepared to a concentration of 250 μM (˜1.0 mg/mL) in FasSSGF. 200 μL ([…], ˜250 units) of pepsin stock solution was added to 200 μL of peptide solution (1.0 mg/mL, ˜100 μg of peptide, ˜25 nmoles) and the mixture was co-incubated in a temperature-regulated incubator at 37° C. for the duration of the experiment. 30 μL aliquot of the peptide-enzyme mixture was periodically withdrawn (t=0, 5, 10, 15, and 30 min) and quenched immediately by addition of 80 μL of 0.1M ammonium bicarbonate solution in water/acetonitrile (4:1, pH 8) to arrest proteolytic activity. 30 μL aliquot was analyzed by analytical RP-HPLC. Analytical RP-HPLC method: Agilent Polaris C8-A column (4.6×100 mm, 3 micron) eluted with a linear binary gradient of 10-90% MeCN (0.1% TFA v/v) in water (0.1% TFA v/v) over either 10 or 15 mins at 1.5 mL min-1 at 40° C. with detection by UV absorption at 210 nm. Manual integration (AUC) allowed estimation of remaining intact peptide over the time course of the experiment.

recombinant Neprilysin = molecular target: T1, recombinant Neprilysin (Homo sapiens, UniProt P08473); test: Proteolytic resistance to neprilysin; assay type: in vitro ADME; conditions: pH 8.3; for remaining at 4 h / remaining at 24 h: isolated enzyme neprilysin
T1 construct: purchased R&D Systems 1182-ZNC-010
T1 sequence (P08473 52-750 limits assumed): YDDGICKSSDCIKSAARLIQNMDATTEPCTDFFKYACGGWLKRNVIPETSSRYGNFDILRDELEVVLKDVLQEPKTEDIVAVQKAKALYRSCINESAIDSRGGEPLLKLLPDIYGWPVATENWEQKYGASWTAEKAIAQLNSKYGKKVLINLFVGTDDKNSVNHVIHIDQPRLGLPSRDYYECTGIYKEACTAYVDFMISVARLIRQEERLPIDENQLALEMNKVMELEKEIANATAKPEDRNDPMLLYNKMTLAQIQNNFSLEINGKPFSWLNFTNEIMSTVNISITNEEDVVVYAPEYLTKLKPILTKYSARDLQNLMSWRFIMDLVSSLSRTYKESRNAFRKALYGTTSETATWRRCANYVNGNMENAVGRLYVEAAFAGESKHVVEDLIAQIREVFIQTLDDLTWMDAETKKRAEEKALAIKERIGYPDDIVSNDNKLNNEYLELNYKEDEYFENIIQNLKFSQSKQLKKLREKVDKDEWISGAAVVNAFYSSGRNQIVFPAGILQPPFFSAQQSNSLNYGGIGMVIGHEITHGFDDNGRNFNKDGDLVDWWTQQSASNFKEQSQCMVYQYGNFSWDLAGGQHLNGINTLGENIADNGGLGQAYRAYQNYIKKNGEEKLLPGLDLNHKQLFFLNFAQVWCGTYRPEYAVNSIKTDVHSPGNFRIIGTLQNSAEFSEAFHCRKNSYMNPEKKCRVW
Protocol: 10.0 μg (˜10 units) recombinant Neprilysin (R&D Systems: 1182-ZNC-010) was reconstituted to 100 μL (100 μg/mL, ˜100 units/mL) in assay buffer (50 mM Tris, 50 mM NaCl, 50 mM NaHCO3, adjusted to pH 8.3) to give the enzyme stock solution. Peptide stock solutions were prepared to a concentration of ˜250 μM (˜1.0 mg/mL of 4 kDa peptide) in assay buffer. 100 μL (10 μg, ˜10 units) of neprilysin stock solution was added to 100 μL of peptide stock solution (1.0 mg/mL, ˜100 μg of peptide) and the mixture was co-incubated in a temperature regulated incubator at 37° C. for the duration of the experiment. 25 μL aliquots (˜ 12.5 μg initial peptide) of the peptide-enzyme mixture were periodically withdrawn (t=0, 30 mins, 1 h, 2 h, 4 h and 24 h) and quenched immediately by addition to an equal volume ([…]) of 10% TFA (v/v) in 1:1 water/acetonitrile to arrest proteolytic activity. The quenched aliquot centrifuged at 7800 rpm, and 30 μL of the supernatant was analyzed by analytical RP-HPLC as follows: Analytical RP-HPLC method: Agilent Polaris C8-A column (4.6×100 mm, 3 micron) eluted with a linear binary gradient of 10-90% MeCN (0.1% TFA v/v) in water (0.1% TFA v/v) over either 10 or 15 mins at 1.5 mL min-1 at 40° C. with detection by UV absorption at 210 nm. Manual integration (AUC) allowed estimation of remaining intact peptide over the time course of the experiment.

[2] = molecular target: human GLP-1 receptor (hGLP-1R) (Homo sapiens, UniProt P43220); test: cAMP production (HTRF) in CHO cells expressing hGLP-1R; assay type: cell-based; set-up: expressed in transfected cells; conditions: for EC50: cAMP in CHO hGLP-1R cells, geometric mean, read-out: hGLP-1R EC50; for % Relative Potency Ratio: % GLP-1R activity relative to GLP-1 / % GlucR activity relative to glucagon
Chain of human GLP-1 receptor (hGLP-1R) (P43220 24-463): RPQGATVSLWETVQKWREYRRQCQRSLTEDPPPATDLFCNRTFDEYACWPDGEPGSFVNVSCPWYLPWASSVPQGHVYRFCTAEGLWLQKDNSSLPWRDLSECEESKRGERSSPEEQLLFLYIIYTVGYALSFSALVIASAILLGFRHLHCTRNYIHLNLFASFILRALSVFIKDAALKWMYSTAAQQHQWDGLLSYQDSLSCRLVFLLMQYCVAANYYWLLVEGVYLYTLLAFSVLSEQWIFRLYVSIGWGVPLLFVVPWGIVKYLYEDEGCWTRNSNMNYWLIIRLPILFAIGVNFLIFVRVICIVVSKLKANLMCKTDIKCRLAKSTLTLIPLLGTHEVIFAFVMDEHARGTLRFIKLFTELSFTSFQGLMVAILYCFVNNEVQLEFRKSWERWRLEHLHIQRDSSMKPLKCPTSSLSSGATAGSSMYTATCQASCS
In short: (§1)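 Read-out: HTRF cAMP (anti-cAMP cryptate donor, cAMP-d2 acceptor in conjugate/lysis buffer), converted to % Delta F and fitted by 4-parameter logistic for EC50. Cell densities were 1×10^5 cells/mL (hGLP-1R) or 2×10^5 cells/mL (hGCGR). Stimulation lasted 30 min at room temperature.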

[3] = molecular target: human glucagon receptor (hGCGR) (Homo sapiens, UniProt P47871); test: cAMP production (HTRF) in CHO cells expressing hGCGR; assay type: cell-based; set-up: expressed in transfected cells; conditions: cAMP in CHO hGCGR cells, geometric mean, read-out: hGluc-R EC50
Chain of human glucagon receptor (hGCGR) (P47871 26-477): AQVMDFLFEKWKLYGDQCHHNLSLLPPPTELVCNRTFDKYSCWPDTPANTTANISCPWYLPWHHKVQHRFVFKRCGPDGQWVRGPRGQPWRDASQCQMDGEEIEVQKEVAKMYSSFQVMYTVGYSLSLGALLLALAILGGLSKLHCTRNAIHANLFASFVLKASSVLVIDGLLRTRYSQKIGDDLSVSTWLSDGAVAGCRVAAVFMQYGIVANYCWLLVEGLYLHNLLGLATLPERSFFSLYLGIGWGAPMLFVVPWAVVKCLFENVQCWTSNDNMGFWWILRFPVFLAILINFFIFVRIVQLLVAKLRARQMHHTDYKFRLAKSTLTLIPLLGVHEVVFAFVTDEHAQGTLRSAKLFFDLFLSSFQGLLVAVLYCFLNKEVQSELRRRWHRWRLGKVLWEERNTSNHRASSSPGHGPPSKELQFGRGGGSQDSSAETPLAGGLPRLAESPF
In short: as §1

[4] = Table 6, peptides modified at position 17
[5] = Table 7, peptides modified at position 20

`CC[C@H](C)[C@H](NC(=O)C(C)(C)NC(=O)[C@H](CCC(=O)O)NC(=O)[C@@H](NC(=O)[C@](C)(Cc1ccccc1)NC(=O)[C@H](CC(=O)O)NC(=O)[C@H](CCCNC(=N)N)NC(=O)[C@H](C)NC(=O)[C@H](C)NC(=O)[C@H](CCCCNC(=O)COCCOCCNC(=O)COCCOCCNC(=O)CC[C@H](NC(=O)CCCCCCCCCCCCCCCCC(=O)O)C(=O)O)NC(=O)[C@H](CO)NC(=O)[C@H](CC(=O)O)NC(=O)[C@H](CC(C)C)NC(=O)[C@](C)(Cc1ccccc1)NC(=O)[C@H](CCCCN)NC(=O)[C@H](CO)NC(=O)[C@@H](NC(=O)[C@H](CC(=O)O)NC(=O)[C@H](CO)NC(=O)[C@@H](NC(=O)[C@](C)(Cc1ccccc1)NC(=O)[C@H](CO)NC(=O)CNC(=O)[C@H](Cc1c[nH]cn1)NC(=O)C(C)(C)NC(=O)[C@@H](N)Cc1c[nH]cn1)[C@@H](C)O)C(C)C)C(C)C)C(=O)N[C@@H](C)C(=O)N[C@@H](CC(N)=O)C(=O)N[C@H](C(N)=O)[C@@H](C)O` [Peptide 15] (H-H[Aib]HGS[αMeF]TSDVSK[αMeF]LDSK([AEEA-AEEA-γGlu-C18 diacid])AARD[αMeF]VE[Aib]IANT-NH2; N-terminus assumed) showed a remaining at 0.25 h, 125 µM [1] of 91%, a remaining at 0.5 h, 125 µM [1] of 77% and a remaining at 4 h (recombinant Neprilysin) of 100%. For the same molecule, the remaining at 24 h (recombinant Neprilysin) was 83%, the “% intact peptide over time” value (recombinant Neprilysin) was 100% and the EC50 [2, 4] was 0.0331 nM. The “% Relative Potency Ratio” value ([2]; Table 6) was 3.7 and the EC50 [3, 4] was 0.0614 nM.

`CC[C@H](C)[C@H](NC(=O)C(C)(C)NC(=O)[C@H](CCC(N)=O)NC(=O)[C@@H](NC(=O)[C@](C)(Cc1ccccc1)NC(=O)[C@H](CC(=O)O)NC(=O)[C@H](CCCCNC(=O)COCCOCCNC(=O)COCCOCCNC(=O)CC[C@H](NC(=O)CC[C@H](NC(=O)CCCCCCCCCCCCCCCCCCC(=O)O)C(=O)O)C(=O)O)NC(=O)[C@H](C)NC(=O)[C@H](C)NC(=O)[C@H](CCCNC(=N)N)NC(=O)[C@H](CO)NC(=O)[C@H](CC(=O)O)NC(=O)[C@H](CC(C)C)NC(=O)[C@](C)(Cc1ccccc1)NC(=O)[C@H](CCCCN)NC(=O)[C@H](CO)NC(=O)[C@@H](NC(=O)[C@H](CC(=O)O)NC(=O)[C@H](CO)NC(=O)[C@@H](NC(=O)[C@H](Cc1ccccc1)NC(=O)[C@H](CO)NC(=O)CNC(=O)[C@H](Cc1c[nH]cn1)NC(=O)C(C)(C)NC(=O)[C@@H](N)Cc1c[nH]cn1)[C@@H](C)O)C(C)C)C(C)C)C(=O)N[C@@H](C)C(=O)N[C@@H](CC(N)=O)C(=O)N[C@H](C(N)=O)[C@@H](C)O` [Peptide 282] (H-H[Aib]HGSFTSDVSK[αMeF]LDSRAAK([AEEA-AEEA-γGlu-γGlu-C20 diacid])D[αMeF]VQ[Aib]IANT-NH2) gave a remaining at 0.25 h, 125 µM [1] of 83%, a remaining at 0.5 h, 125 µM [1] of 76% and a remaining at 4 h (recombinant Neprilysin) of 100%. The remaining at 24 h (recombinant Neprilysin) was 97%, the “% intact peptide over time” value (recombinant Neprilysin) was 100% and the EC50 [2, 5] was 1.23 nM. The “% Relative Potency Ratio” value ([2]; Table 7) was 1.8 and the EC50 [3, 5] was 1.14 nM.

`CC[C@H](C)[C@H](NC(=O)C(C)(C)NC(=O)[C@H](CCC(N)=O)NC(=O)[C@@H](NC(=O)[C@](C)(Cc1ccccc1)NC(=O)[C@H](CC(=O)O)NC(=O)[C@H](CCCCNC(=O)COCCOCCNC(=O)COCCOCCNC(=O)CC[C@H](NC(=O)CC[C@H](NC(=O)CCCCCCCCCCCCCCCCCCC(=O)O)C(=O)O)C(=O)O)NC(=O)[C@H](C)NC(=O)[C@H](C)NC(=O)[C@H](CCCNC(=N)N)NC(=O)[C@H](CO)NC(=O)[C@H](CC(=O)O)NC(=O)[C@H](CC(C)C)NC(=O)[C@H](Cc1ccc(O)cc1)NC(=O)[C@H](CCCCN)NC(=O)[C@H](CO)NC(=O)[C@@H](NC(=O)[C@H](CC(=O)O)NC(=O)[C@H](CO)NC(=O)[C@@H](NC(=O)[C@](C)(Cc1ccccc1)NC(=O)[C@H](CO)NC(=O)CNC(=O)[C@H](Cc1c[nH]cn1)NC(=O)C(C)(C)NC(=O)[C@@H](N)Cc1c[nH]cn1)[C@@H](C)O)C(C)C)C(C)C)C(=O)N[C@@H](C)C(=O)N[C@@H](CC(N)=O)C(=O)N[C@H](C(N)=O)[C@@H](C)O` [Peptide 283] (H-H[Aib]HGS[αMeF]TSDVSKYLDSRAAK([AEEA-AEEA-γGlu-γGlu-C20 diacid])D[αMeF]VQ[Aib]IANT-NH2) gave a remaining at 0.25 h, 125 µM [1] of 68%, a remaining at 0.5 h, 125 µM [1] of 48% and a remaining at 4 h (recombinant Neprilysin) of 81%. For the same molecule, the remaining at 24 h (recombinant Neprilysin) was 63%, the “% intact peptide over time” value (recombinant Neprilysin) was 100% and the EC50 [2, 5] was 0.129 nM. For the same molecule, the “% Relative Potency Ratio” value ([2]; Table 7) was 8.4 and the EC50 [3, 5] was 0.552 nM.

Work on `CC[C@H](C)[C@H](NC(=O)C(C)(C)NC(=O)[C@H](CCC(N)=O)NC(=O)[C@@H](NC(=O)[C@H](Cc1ccccc1)NC(=O)[C@H](CC(=O)O)NC(=O)[C@H](CCCCNC(=O)COCCOCCNC(=O)COCCOCCNC(=O)CC[C@H](NC(=O)CCCCCCCCCCCCCCCCC(=O)O)C(=O)O)NC(=O)[C@H](C)NC(=O)[C@H](C)NC(=O)[C@H](CCCNC(=N)N)NC(=O)[C@H](CO)NC(=O)[C@H](CC(=O)O)NC(=O)[C@H](CC(C)C)NC(=O)[C@](C)(Cc1ccccc1)NC(=O)[C@H](CCCCN)NC(=O)[C@H](CO)NC(=O)[C@@H](NC(=O)[C@H](CC(=O)O)NC(=O)[C@H](CO)NC(=O)[C@@H](NC(=O)[C@](C)(Cc1ccccc1)NC(=O)[C@H](CO)NC(=O)CNC(=O)[C@H](Cc1c[nH]cn1)NC(=O)C(C)(C)NC(=O)[C@@H](N)Cc1c[nH]cn1)[C@@H](C)O)C(C)C)C(C)C)C(=O)N[C@@H](C)C(=O)N[C@@H](CC(N)=O)C(=O)N[C@H](C(N)=O)[C@@H](C)O` [Peptide 287] (H-H[Aib]HGS[αMeF]TSDVSK[αMeF]LDSRAAK([AEEA-AEEA-γGlu-C18 diacid])DFVQ[Aib]IANT-NH2) yielded a remaining at 0.25 h, 125 µM [1] of 0%, a remaining at 0.5 h, 125 µM [1] of 0% and a remaining at 4 h (recombinant Neprilysin) of 77%. The remaining at 24 h (recombinant Neprilysin) was 59%, the “% intact peptide over time” value (recombinant Neprilysin) was 100% and the EC50 [2, 5] was 0.0275 nM. The “% Relative Potency Ratio” value ([2]; Table 7) was 1.9 and the EC50 [3, 5] was 0.0265 nM.

For `CC[C@H](C)[C@H](NC(=O)[C@H](Cc1c[nH]c2ccccc12)NC(=O)[C@H](CCC(N)=O)NC(=O)[C@@H](NC(=O)[C@H](Cc1ccccc1)NC(=O)[C@H](CC(=O)O)NC(=O)[C@H](CCCCNC(=O)COCCOCCNC(=O)COCCOCCNC(=O)CC[C@H](NC(=O)CC[C@H](NC(=O)CCCCCCCCCCCCCCCCCCC(=O)O)C(=O)O)C(=O)O)NC(=O)[C@H](C)NC(=O)[C@H](C)NC(=O)[C@H](CCCNC(=N)N)NC(=O)[C@H](CO)NC(=O)[C@H](CC(=O)O)NC(=O)[C@H](CC(C)C)NC(=O)[C@](C)(Cc1ccccc1)NC(=O)[C@H](CCCCN)NC(=O)[C@H](CO)NC(=O)[C@@H](NC(=O)[C@H](CC(=O)O)NC(=O)[C@H](CO)NC(=O)[C@@H](NC(=O)[C@H](Cc1ccccc1)NC(=O)[C@H](CO)NC(=O)CNC(=O)[C@H](Cc1c[nH]cn1)NC(=O)C(C)(C)NC(=O)[C@@H](N)Cc1c[nH]cn1)[C@@H](C)O)C(C)C)C(C)C)C(=O)N[C@@H](C)C(=O)N[C@@H](CC(N)=O)C(=O)N[C@H](C(N)=O)[C@@H](C)O` [Peptide 290] (H-H[Aib]HGSFTSDVSK[αMeF]LDSRAAK([AEEA-AEEA-γGlu-γGlu-C20 diacid])DFVQWIANT-NH2), the remaining at 0.25 h, 125 µM [1] was 0%, the remaining at 0.5 h, 125 µM [1] was 0% and the “% intact peptide over time” value (recombinant Neprilysin) was 100%.

Source: patent publication US20250353891A1 (MEDIMMUNE LIMITED, priority 2022, published 2025)
